In a melting point compilation (Tetko et al.; mined from patent text by program, amines drawn as free bases though some values may be those of a salt):

`CN(c1cccc2cc(-c3ncc(CN4CCS(=O)(=O)CC4)s3)[nH]c12)S(=O)(=O)c1cccs1` gave a melting point of 225 to 226 °C. Compound `CCc1cnc(N2CCC(c3ccc4[nH]c(-c5ccc(S(C)(=O)=O)cc5F)nc4c3)CC2)nc1` has a melting point of 220 to 224 °C. Compound `COc1cc2nc(SCc3cc(N(C)C)c(Cl)cn3)[nH]c2cc1OC` has a melting point of 116 to 117 °C. For `CCOC(=S)Nc1nc(OCc2ccc(F)cc2)ncc1F`, the melting point was 109 to 119 °C. In the case of `COc1ccc(C2(O)c3cc(NC(=O)CC(C)(C)C)c(C)c(C)c3OC2(C)C)cc1` (stereo not drawn), the melting point is reported as 110 to 111 °C. Compound `O=C(O)c1c(Br)c(Br)c([N+](=O)[O-])c2c1OCCO2` has a melting point of 238 °C. Compound `COc1ccc(-c2coc3ccc(-c4nnc(C)o4)cc23)cc1F` has a melting point of 159 to 160 °C. `Nc1nc(Nc2ccccc2)sc1C(=O)c1cccs1` gave a melting point of 84 to 85 °C. For `Cc1cncc(CNC(=O)c2sc(N3CCN(CCCC(F)(F)F)C3=O)nc2C)n1`, the melting point was 123 °C. For `NC(=O)N(O)C/C=C/c1cccc(C2=NOC(c3ccc(F)cc3)C2)c1` (stereo not drawn), the melting point was 159 to 160 °C. In the case of `COc1ccc(C(C)(C)OC)cc1CN[C@H]1C2CCN(CC2)[C@H]1C(c1ccccc1)c1ccccc1`, the melting point is reported as 127 °C. `CCCCCCCCCCCCCCCCOCC(COC(c1ccccc1)(c1ccccc1)c1ccccc1)COS(C)(=O)=O` (stereo not drawn) gave a melting point of 39 °C. In the case of `C[C@@H]1CC=C(S(=O)(=O)c2ccccc2)[C@H](O)C1`, the melting point is reported as 79 to 81 °C. For `CC(=O)Nc1ccc(-c2nc3ccccc3o2)cc1`, the melting point was 214 to 215 °C. `COc1cc2c(cc1OC)C1=C(C#N)SCC(=O)N1CC2` gave a melting point of 186 to 187 °C. Compound `CCc1nc(O)c(I)c(Cl)n1` has a melting point greater than 230 °C. Work on `CCCCCCSc1ssc(=S)c1-c1cc(C(C)(C)C)c(O)c(C(C)(C)C)c1` yielded a melting point of 110 °C. In the case of `CCCc1nc2c(N)nc3ccccc3c2n1CC1(O)CCS(=O)(=O)CC1`, the melting point is reported as greater than 250 °C. In the case of `O=C1c2ccccc2C(=O)N1CCSCc1nccc(NC(=S)NCC(F)(F)F)n1`, the melting point is reported as 178 to 179 °C. In the case of `Cc1c(C)c2c(c(C)c1O)C(c1ccc(N3CCN(C)CC3)cc1)C(C)(C)O2` (stereo not drawn), the melting point is reported as 159 to 161 °C. With `Cc1ccccc1-n1c(-c2sc(Nc3ccc(Cl)cc3)nc2C)nc2ccccc2c1=O` the melting point was greater than 275 °C. Work on `C=CCCc1nc(N)n2nc(-c3ccco3)nc2n1` yielded a melting point of 194 to 196 °C. Work on `O=C(O)c1cc2cc(F)c(F)cc2[nH]1` yielded a melting point of 279 to 280 °C. Work on `COC(=O)CCC(=O)Nc1cccc(O)c1` yielded a melting point of 144 to 146 °C. `O=S(=O)(NC1CCCCC1)c1ccc(Nc2nccc(N3CCCc4c(O)cccc43)n2)cc1` gave a melting point of 236 to 238 °C. For `CC1(C)C(C(=O)O)C1(C)C`, the melting point was 120 °C. In the case of `COc1ccc(NC(=O)N(C)Cc2cccc3c2CN(C2CCC(=O)NC2=O)C3=O)cc1` (stereo not drawn), the melting point is reported as 245 to 247 °C. `O=C(c1cc(C2CCCCC2)ccn1)N(O)Cc1ccccc1` showed a melting point of 106 to 110 °C. For `CCCCOC(=O)c1ccc(-c2nc(C(Cl)(Cl)Cl)nc(C(Cl)(Cl)Cl)n2)cc1`, the melting point was 109 to 110 °C. With `COc1ccc2c(=O)cc(CS(C)=O)oc2c1` (stereo not drawn) the melting point was 157 to 159 °C. `CC(N)=NC(=Nc1ccccc1)N1CCOCC1` showed a melting point of 146 to 148 °C. For `COC(=O)c1nc(-c2ccc(Cl)c(OC)c2F)cc(N)c1C`, the melting point was 122 to 125 °C. With `N=c1sc2cc(OC(F)(F)F)ccc2n1CCS(=O)c1ncccn1` (stereo not drawn) the melting point was 120 °C. `Cc1ccc2c(c1)c(-c1ccc(F)cc1)c(C)n2C1=CCN(CCN2CCNC2=O)CC1` gave a melting point of 151 to 153 °C. Compound `CC(C)(C)c1cc(SCCC(=O)NN)cc(C(C)(C)C)c1O` has a melting point of 107 to 110 °C. With `CC[C@@H](CO)Nc1nc(-c2ccc(Br)cc2)cs1` the melting point was 91 to 93 °C. In the case of `Clc1ccc(Cn2cc(C=NNc3nc(-c4ccc(Cl)cc4Cl)cs3)c3ccccc32)c(Cl)c1`, the melting point is reported as 185 °C. With `N=C(NC1CC1)NN1CCc2cc(Cl)ccc21` the melting point was 146 to 149 °C. `CN1c2ccc(S(=O)(=O)N3CCOCC3)cc2S(=O)(=O)NC1C1CCCCC1` (stereo not drawn) gave a melting point of 207 to 210 °C. Work on `CSC1C(=O)Nc2c(Oc3c(Cl)cccc3Cl)cccc21` (stereo not drawn) yielded a melting point greater than 230 °C. With `O=C1CC(=Cc2ccccc2)C(=O)O1` the melting point was 167 to 170 °C. Work on `O=C1CCCc2c1ccc(OCc1ccccc1)c2CBr` yielded a melting point of 103 to 104 °C. `O=C(NCCC12CC3CC(CC(C3)C1)C2)c1cccc(Cl)c1Cl` gave a melting point of 158 to 159 °C. Compound `CCc1c(-c2ccc(OCc3ccccc3)cc2)c2ccc3ccc(CO)c1n32` has a melting point of 99 to 102 °C. Compound `O=C(c1ccc2c(=O)nc(-c3ccccn3)sc2c1)N1CCCC1` has a melting point of 174 °C. For `CC(C)(C)OC(=O)C[C@@H](NS(=O)(=O)c1ccc2c(Cl)cnc(Cl)c2c1)C(=O)OC(C)(C)C`, the melting point was 106 to 110 °C. `CN1C(=O)C(=O)c2cc(I)ccc21` gave a melting point of 160 to 162 °C. In the case of `Cc1nc2cccc(CCN3CCC(c4noc5cc(F)ccc45)CC3)c2c(=O)[nH]1`, the melting point is reported as 164 to 165 °C. `CNC(=S)NCCSCc1ncccc1N` showed a melting point of 99.5 °C. Work on `CC(C)NCC(O)COc1cccc2c1CCC(O)C2` (stereo not drawn) yielded a melting point of 136 to 141 °C. In the case of `Cc1ccc([N+](=O)[O-])cc1/C=C/c1nc(C(C)C)cs1`, the melting point is reported as 87 to 88 °C. `Cc1cn(NCc2cc(C(C)(C)C)c(O)c(C(C)(C)C)c2)cn1` showed a melting point of 150 to 151 °C. Compound `Cc1cc(O)ccc1OCc1ccccc1` has a melting point of 70 to 71 °C. For `O=C(O)CCc1cn(Cc2ccc(OCc3cncc(-c4ccccc4)c3)cc2)nc1-c1ccccc1`, the melting point was 161 to 162 °C. For `COC(=O)CCCC#CCN1C(=O)c2ccccc2C1=O`, the melting point was 62 to 63 °C. `c1ccc(CN2CC3OC(c4ccccc4)(C2)c2ccccc23)cc1` (stereo not drawn) gave a melting point of 100 to 101 °C. With `CCOC(=O)c1c(-c2ccc(F)cc2)c(-c2ccc(F)cc2)cn1C(C)C` the melting point was 49 °C. Work on `COc1ccc(NC(C)=O)cc1OC(F)F` yielded a melting point of 129 to 130 °C. With `CCOC(=O)c1[nH]c(=O)sc1Br` the melting point was 121 °C. With `Cc1cc2cc(Nc3ncnc4cc(-c5ccccc5)sc34)ccc2[nH]1` the melting point was 218 to 220 °C. `Cn1c(=O)c(-c2c(Cl)cccc2Cl)cc2cnc(Nc3cccc(C(=O)O)c3)nc21` showed a melting point greater than 300 °C. In the case of `CC(=Nc1ccccc1C(C)C)Nc1ccccc1C(C)C`, the melting point is reported as 94 to 96 °C. Work on `CC1Sc2c(C(=O)O)c(=O)c3cc(F)c(N4CCSCC4)cc3n21` (stereo not drawn) yielded a melting point of 229 to 231 °C. Work on `CCOC(=O)C(C)O/N=C(\C(=O)O)c1csc(N)n1` (stereo not drawn) yielded a melting point of 166 °C. Work on `CC1(Oc2ccc(N)cc2)C2CC3CC(C2)CC1C3` (stereo not drawn) yielded a melting point of 95.6 to 97.9 °C. With `Cc1cc(C)c2cccc(OCc3c(C)ccc(N(C)C(=O)CN)c3C)c2n1` the melting point was 145 to 148 °C. Compound `CC(C)C[C@H](NC(=O)CCC1CCCCC1)C(=O)N[C@@H](Cc1ccccc1)C(=O)CSCc1ccco1` has a melting point of 116 to 118 °C. For `CN(c1ccc2c(c1)S(=O)(=O)C=C(c1c(O)c3cc(F)ccc3n(CCC3CC3)c1=O)N2)S(C)(=O)=O`, the melting point was 208 to 212 °C. `CC(C)Nc1nc(Cl)nc(NCCS)n1` gave a melting point of 141 to 146 °C. Compound `CC(=O)N1CCN(c2c(Cl)cncc2Cl)CC1` has a melting point of 144 to 146 °C. `COc1cc(OC)nc(NC(=O)NS(=O)(=O)c2cccc3cccnc23)n1` showed a melting point of 175 to 177 °C. `CCOC(=O)c1cc2c(nc1C)C(CBr)CCCC2` (stereo not drawn) showed a melting point of 50 to 51 °C. With `CC(=O)N1CCc2c(sc(C)c2CCN2CCC(c3noc4cc(F)ccc34)CC2)C1` the melting point was 70 to 75 °C. `CCOC(=O)C1=C(C)NC(C#N)=C(C(=O)OCC)C1c1ccccc1Cl` (stereo not drawn) gave a melting point of 136 to 137 °C. `CCCN1C(=O)c2ccccc2Sc2ccccc21` showed a melting point of 103 to 104 °C. In the case of `N#Cc1c(NC(=O)CO)cccc1N1CCOCC1`, the melting point is reported as 123 to 126 °C. `O=C(Nn1c(=O)c(=O)[nH]c2cc(C(F)(F)F)c([N+](=O)[O-])cc21)C(F)(F)F` gave a melting point greater than 250 °C. `CC(=O)NCc1nc(-c2ccc3c(c2)Nc2ccccc2S3)cs1` showed a melting point of 219 to 221 °C. Compound `CC1(C)N=C(c2ccccc2)CC1c1ccncc1` (stereo not drawn) has a melting point of 90 to 92 °C. With `Cc1nc(CN2CCN(c3cccc(Br)c3)CC2)cs1` the melting point was 82 °C. Work on `CN(C(=O)c1cccc(C(=C2CC3CCC(C2)N3C)c2ccccc2)c1)c1cccc(F)c1` yielded a melting point of 122 to 125 °C. With `CCn1ncc2c(Cl)c3cc(Br)ccc3nc21` the melting point was 117 to 118 °C. Compound `CC(=O)O[C@H]1[C@H](OC(C)=O)CSC(Oc2ccc3c(ccn3C(=O)OC(C)(C)C)c2)[C@@H]1OC(C)=O` (stereo partly drawn) has a melting point of 58 to 62 °C. `N=C(NO)C1=Cc2cc(O)c(O)cc2CC1` showed a melting point of 183 to 185 °C. Compound `CCOC(=O)c1cnc2sc(-c3cccnc3)nn2c1=O` has a melting point of 200 to 202 °C. With `N#Cc1cnc2cc(C#CCO)ccc2c1Nc1ccc(Cl)cc1Cl` the melting point was 251 to 253 °C. `COC(=O)c1ccc(N2C(=O)CCC2(CO)CO)c(N)c1` gave a melting point of 192 to 194 °C. `CC(=O)SCCC(=O)NC1(C(=O)O)CCCC1` gave a melting point of 127 to 128 °C. Work on `CN(c1nc(-c2cc3ccccc3[nH]c2=O)cs1)S(=O)(=O)c1ccccc1` yielded a melting point of 242 to 244 °C. Work on `O=Cc1cccn2cc(-c3ccccc3)nc12` yielded a melting point of 96 to 99 °C. `CC(C)Oc1nc(N)nc2[nH]cnc12` gave a melting point of 204 to 206 °C. In the case of `CC1=C(C(=O)OCC(C)C)C(c2cccc([N+](=O)[O-])c2)c2c(nc(N3CCOCC3)nc2N2CCOCC2)N1` (stereo not drawn), the melting point is reported as 214 °C. Work on `Cc1cc2c(c(C)c1Br)C(c1ccccc1)CO2` (stereo not drawn) yielded a melting point of 135 to 136 °C. `CC1Sc2c(C(=O)O)c(=O)c3cc(F)c(N4CCNCC4)cc3n21` (stereo not drawn) gave a melting point of 225 to 227 °C. For `CC(C)(C)c1ccc(C=C(CCCCCC2CCCCC2)COCc2ccccc2)cc1NC(=O)CC1c2ccccc2Oc2ccccc21`, the melting point was 110 °C. For `CC1(C)CCC[C@]2(C)OC(=O)C[C@H]12`, the melting point was 74 to 75 °C. Compound `COc1ccc2nccc([C@@H]3CN(CCCNS(=O)(=O)c4ccc5c(c4)NC(=O)CS5)C(=O)O3)c2c1` has a melting point of 135 to 140 °C. `CCOC(=O)C(O)Cc1ccc(OCCNC(=O)c2ccc(-c3ccccn3)cc2)cc1` (stereo not drawn) gave a melting point of 97 to 99 °C. `COC(=O)C1Cc2ccc([N+](=O)[O-])cc2CN1` (stereo not drawn) showed a melting point of 133 to 135 °C. Compound `CCc1noc(=O)c2ccc(NC(=O)C(=O)CC(C)(C)c3cc(F)ccc3OC)cc12` has a melting point of 157 to 158 °C. Work on `CCOC(=O)CCCCCCCCOC1OC(CO)C(O)C(O)C1NC(C)=O` (stereo not drawn) yielded a melting point of 112 °C. In the case of `CNC(=O)c1cc(-c2ccc(OC)cc2)nn(CC(=O)NCc2ccccn2)c1=O`, the melting point is reported as 195 to 196 °C. With `COC(=O)C(Oc1ccc(-c2ccc(Cl)cc2)cc1)C(F)(F)F` (stereo not drawn) the melting point was 104 to 105 °C.
